Results taken from patent US11166899B2, “Composition for external application containing a ceramide, a derivative thereof and an extract of Hibisci cortex” (AMOREPACIFIC CORPORATION, priority 2017, dated 2021).

Molecular target: T1, PPARα (Homo sapiens, UniProt Q07869)
T1 construct: expressed in transfected cells; host or cells: HaCaT (human keratinocyte cell line), transiently transfected
T1 sequence (Q07869 1-468): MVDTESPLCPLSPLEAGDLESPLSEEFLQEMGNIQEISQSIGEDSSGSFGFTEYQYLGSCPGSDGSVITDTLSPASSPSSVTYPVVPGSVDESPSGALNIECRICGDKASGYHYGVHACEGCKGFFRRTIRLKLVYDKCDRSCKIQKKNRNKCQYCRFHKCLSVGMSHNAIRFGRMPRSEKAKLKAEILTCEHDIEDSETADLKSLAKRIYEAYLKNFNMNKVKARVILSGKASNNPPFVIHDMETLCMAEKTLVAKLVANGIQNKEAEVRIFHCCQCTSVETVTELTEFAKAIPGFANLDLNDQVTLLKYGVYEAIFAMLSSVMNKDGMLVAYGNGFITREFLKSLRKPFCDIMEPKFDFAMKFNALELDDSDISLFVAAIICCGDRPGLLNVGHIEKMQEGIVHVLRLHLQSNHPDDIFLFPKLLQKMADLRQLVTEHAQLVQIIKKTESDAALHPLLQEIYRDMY
Assay: PPARα activation of single ceramide derivatives, PPRE-luciferase reporter in transfected HaCaT cells (Test Example 1)
Assay type: cell-based
Settings: 24 hours, DMSO control = 100
From the text: HaCaT, which is a human keratinocyte cell line, was subcultured in DMEM medium containing 10% fetal bovine serum, which is a phenol red-free medium, in order to eliminate the effect caused by the phenol red's estrogen. The following plasmids were used: a plasmid having PPARα, PPARβ/δ and PPARγ genes downstream of a universal promoter which is expressed in general culture conditions; a plasmid having a PPARs response element (“PPRE”) as a promoter, which is activated by binding with ligand-bound PPARs, and a firefly luciferase gene serving as a reporter downstream of the promoter; and a reference plasmid having a β-galactosidase gene bound to a universal promoter.
HaCaT cells were seeded into a 24-well plate at a density of 5×10^4 cells/well, cultured for 24 hours, and then transiently transfected with the plasmid genes. After 24 hours of culture, the cells were washed with phosphate buffered saline (PBS), and then treated with the compounds prepared in Reference Examples 2-1 to 2-4, and Reference Examples 3-11 to 3-15 at a concentration of 10 ppm. As a positive control group, the cells were treated with a previously-known PPARs ligand (PPARα ligand Wy-14643) at a concentration of 10 μM. As a negative control group, a group treated with DMSO used to dissolve the samples was used. After 24 hours of culture, the cells were washed with PBS, harvested, and measured for luciferase activity.
Results obtained by transfecting the HaCaT cell line with the PPRE promoter reporter plasmid and the PPARα expression plasmid, followed by treating the transfected cells with drugs, and measuring the luciferase activity of the cells

[1] = 10 ppm, HaCaT transfected with PPRE reporter and PPARα plasmids

SMILES	Relative to Control Group (%) (luciferase activity) (positive control, 10 μM, HaCaT)	Relative to Control Group (%) (luciferase activity) [1]
Cc1cccc(Nc2cc(Cl)nc(SCC(=O)O)n2)c1C [Wy-14643, reference compound]	291%	
CCCCCCCCCCCCCCCC(=O)N(CCO)CC(O)CNCCO (stereo not shown) [Reference Example 2-4, N,N′-bis(2-hydroxyethyl)-N-palmitoyl-N′-1,3-diamino-2-hydroxypropane]		260%
CCCCCCCCCCCC(=O)N(CCO)CC(O)CN(CCO)C(=O)CCCCCCCCCCC [Reference Example 2-2, 1,3-Bis(N-(2-Hydroxyethyl)-Lauroylamino)-2-Hydroxypropane]		270%
CCCCCCCC/C=C\CCCCCCCC(=O)N(CCO)CC(O)CN(CCO)C(=O)CCCCCCC/C=C\CCCCCCCC [Reference Example 2-3, 1,3-bis(N-(2-hydroxyethyl)-oleoylamino)-2-hydroxypropane]		255%
CCCCCCCCCCCCCCCCN(CCOCCOP(=O)([O-])O)C(=O)CCCCCCCCCCCCCCC.[Na+] [Reference Example 3-13, (N-Hexadecyl-N-Palmitoyl)-1-Amino-2-Ethoxyethane-2-Sodium Phosphate]		259%
CCCCCCCCCCCCCCCC(=O)N(CCO)CC(O)CN(CCO)C(=O)CCCCCCCCCCCCCCC [Reference Example 2-1, 1,3-bis(N-(2-hydroxyethyl)-palmitoylamino)-2-hydroxypropane]		263%

The next lines start with the values.

Relative to Control Group (%) (luciferase activity) (positive control, 10 μM, HaCaT)	Relative to Control Group (%) (luciferase activity) [1]	SMILES
	278%	CCCCCCCC/C=C\CCCCCCCCN(CC(C)OS(=O)(=O)[O-])C(=O)CCCCCCCCCCCCCCC.[Na+] (stereo not shown) [Reference Example 3-14, (N-oleyl-N-palmitoyl)-1-aminopropane-2-sodium sulfate]
	269%	CCCCCCCC/C=C\CCCCCCCCN(CC(C)(C)OS(=O)(=O)[O-])C(=O)CCCCCCCCCCCCCCC.[Na+] [Reference Example 3-15, (N-Oleyl-N-Palmitoyl)-1-Amino-2-Methylpropane-2-Sodium Sulfate]
	272%	CCCCCCCCCCCCCCCCN(CC(C)OP(=O)([O-])[O-])C(=O)CCCCCCCCCCCCCCC.[Na+].[Na+] (stereo not shown) [Reference Example 3-11, (N-hexadecyl-N-palmitoyl)-1-aminopropane-2-sodium phosphate]
	270%	CCCCCCCCCCCCCCCCN(CC(C)(C)OP(=O)([O-])[O-])C(=O)CCCCCCCCCCCCCCC.[Na+].[Na+] [Reference Example 3-12, (N-Hexadecyl-N-Palmitoyl)-1-Amino-2-Methylpropane-2-Sodium Phosphate]
